Measured values taken from a melting point compilation (Tetko et al.; mined from patent text by program, amines drawn as free bases though some values may be those of a salt).

Row | melting point | SMILES
1 | 204 °C | O=C(c1cccs1)c1cnn2c(-c3cccc(-c4nnnn4CC4CCC4)c3)ccnc12
2 | 205 to 208 °C | CON=Cc1cc(NC(=O)N2CCOCN2)c(Cl)cc1Cl
3 | 137 to 140 °C | CCCCc1nn(-c2cc(NC(=O)CC)ccc2Cl)c(=O)n1Cc1ccc(-c2ccccc2S(=O)(=O)NC(=O)OC(C)(C)C)cc1F
4 | 146 to 147 °C | CCO/C(=N/O)C1Cc2cc(C(=O)CC)c(O)c(Cl)c2O1 (centres undefined)
5 | 238 to 239 °C | Cc1scc2c1N(C(=O)Cl)c1ccccc1NC2=O
6 | 67 to 68 °C | O=C(Cc1ccccc1Nc1c(Cl)cccc1Cl)OCCc1ccccn1
7 | 238 to 240 °C | Nc1ccc(C2=NNC(=O)Cc3cc4c(cc32)OCO4)c(Cl)c1
8 | 91 to 92 °C | Nc1nc2c(ncn2C2CC(CO)C2CO)c(=O)[nH]1 (centres undefined)
9 | 255 to 257 °C | O=C(O)CNC(=O)c1cc(-c2ccc3c(c2)OCO3)c2c3c(ccc2c1)OCO3
10 | 105 to 106 °C | CSC(=Nc1ccccc1)Nc1ccccc1
11 | 123 °C | c1ccc(C(c2ccc3[nH]c(-c4ccccn4)nc3c2)n2ccnc2)cc1 (centres undefined)
12 | 135 to 136 °C | Cc1cccc(Cl)c1N1CCCN(C(C)C)C1=S
13 | 98 to 101 °C | CC(C)NS(=O)(=O)NC(C)C
14 | 161 to 163 °C | COC(=O)c1nc(-c2cc([N+](=O)[O-])c(Cl)cc2F)cc(N)c1Cl
15 | 158 to 160 °C | COc1ccc2c(n1)C1(CO2)C(=O)N(Cc2cnc(C(C)C)s2)c2cccc(Br)c21 (centres undefined)
16 | 195 to 196 °C | N#Cc1ccc(N(Cc2ccc(OS(N)(=O)=O)cc2)n2cnnc2)cc1-c1ccoc1
17 | 196 to 199 °C | Cc1c(Cc2ccncc2)nnc(Nc2ccc(Cl)cc2)c1C
18 | 125 to 127 °C | CC(C)Oc1ccc2nc(CO)n(C)c2n1
19 | 140 to 146 °C | COc1ccccc1C(=O)NS(=O)(=O)c1ccc(NC(=O)c2ccc(Cl)cc2Cl)cc1
20 | 183 to 185 °C | O=C(O)CCC(=O)c1ccc(Br)c(S(=O)(=O)Cl)c1
21 | 163 to 168 °C | O=C(O)c1cc2cc(Cl)ccc2nc1N[C@@H](Cc1ccc(Cl)cc1)C(=O)O
22 | 158 to 160 °C | O=C1NCCN1c1cccc([N+](=O)[O-])c1
23 | 260 °C | O=C1OC(c2ccccc2)(c2ccccc2)C2CN(c3nc4ccccc4o3)CCN12 (centres undefined)
24 | 111 to 112 °C | Nc1nc(Cl)c2ncn(COCCOCCOC(=O)c3ccccc3)c2n1

Row | melting point | SMILES
25 | 46.5 to 47.7 °C | O=S(=O)(Oc1cc(I)c(I)cc1OS(=O)(=O)C(F)(F)F)C(F)(F)F
26 | 142 °C | COc1ccc(C(=O)Cc2ccc(Br)cc2)cc1
27 | 82 to 85 °C | Cn1nc(-c2ccccc2Cl)nc1-c1ccccc1Cl
28 | 155 °C | CCOc1ccc2[nH]c(=O)n(N3CCOCC3)c2c1
29 | 185 to 187 °C | CS(=O)(=O)c1ccc(Nc2ccn(-c3ccccc3)n2)cc1
30 | 198 °C | CC(C)(C)OC(=O)Nc1cc(CO)c(C#Cc2ccc(F)cc2)cc1[N+](=O)[O-]
31 | 83.5 to 84 °C | CCCC[Si](C)(C)CCSCCCNC(=O)n1cc(F)c(=O)[nH]c1=O
32 | 112 to 115 °C | CCOc1cccc2c(=O)c3ccccc3sc12
33 | 103 to 106 °C | CCOC(=O)C1(NC=O)Cc2cccc3c2N(CCC3)C1=O (centres undefined)
34 | 102 to 104 °C | CCC(CC)C(c1ccnn1-c1ccccc1)N(C)S(=O)(=O)c1ccc(Cl)c(Cl)c1 (centres undefined)
35 | 183 to 187 °C | O=C1C(=O)c2ccccc2C2=C1SCC1(CCC(c3ccccc3)CC1)O2 (centres undefined)
36 | 219 to 220 °C | COc1cc2c(cc1Br)-c1c(-c3cncs3)c3c(n1CC2)C(=O)N(C(C)(C)C)CCOC3
37 | 223 to 227 °C | CC1CN(S(=O)(=O)c2cccc(C(=O)O)c2)C(C)CN1S(=O)(=O)c1cccc(C(=O)O)c1 (centres undefined)
38 | 209 to 215 °C | N#CN(c1ccccc1)c1nc(N(C#N)c2ccccc2)nc(N(C#N)c2ccccc2)n1
39 | 17 to 20 °C | C=CCCCCN1C(=O)c2ccccc2C1=O
40 | 98.5 to 99 °C | CCCCOCCOc1ccc(-c2ccc(N3CCC(=O)C3)c(C=C(C)C(=O)OCC)c2)cc1
41 | 174 to 176 °C | CNC(=O)c1ccc2c(c1)CCOC2CCN1CCN(c2ccc(OC)cc2)CC1 (centres undefined)
42 | 32 °C | COc1cc(C(=O)C#CCOCC=C(C)C)cc(OC)c1OC
43 | 225 to 228 °C | Cc1cc(C(C)(C)C)c(OC(=O)c2cc(C(C)(C)C)c(O)c(C(C)(C)C)c2)c(C)c1COC(=S)c1cc(C(C)(C)C)c(O)c(C(C)(C)C)c1
44 | 120 to 121 °C | Cn1cc(Br)cc(Nc2ccc(OC3CN(C(=O)OC(C)(C)C)C3)cn2)c1=O
45 | 155 °C | CCOC(=O)c1ccc(-c2ccc(OCCCN)c(-c3ccc4c(c3)C(C)(C)CCC4(C)C)c2)cc1
46 | 221 to 224 °C | COc1cc(OC)c2nccc(O)c2c1
47 | 111 to 114 °C | Cc1cc(Oc2ccc(Cl)c(C(F)(F)F)c2)c(C)cc1N=CNC#N
48 | 241 to 242 °C | COc1ccc2c(c1)C=Cn1c(nnc1S(C)=O)C2 (centres undefined)

Row | melting point | SMILES
49 | 116 to 117 °C | CC1(C)C(C=C(Br)Br)C1C(=O)O (centres undefined)
50 | > 204 °C | Cc1nc(C(N)=O)c([N+](=O)[O-])n1-c1ccc(Cl)c(Cl)c1
51 | 97.5 to 98.2 °C | CCN(CCCC12CC3CC(CC(C3)C1)C2)C(=O)NCCCc1ccncc1
52 | 111 to 112 °C | ON=Cc1c(C(F)(F)F)ccc(F)c1F
53 | 80 °C | Cn1ccc2c(C(=O)c3ccccc3O)cccc21
54 | 255 to 257 °C | CCCc1cc2c(cc1C(=O)c1ccc(C(O)=NO)cc1)C(C)(C)CCC2(C)C
55 | 211 to 213 °C | COc1ccc(C(=O)Nc2c(Cl)cncc2Cl)c2c1OC(C)C2C(=O)C1NCCc2ccccc21 (centres undefined)
56 | 167 to 168 °C | O=C(O)c1c(O)cccc1OCCC(c1ccccc1)(c1ccccc1)c1ccccc1
57 | 113 °C | CCCCCCC1CC(=O)C=C(N)C1 (centres undefined)
58 | 187 to 188 °C | COc1ccc(-c2ccc3c(C(=O)N(C)C)c(OC)ccc3c2)cc1
59 | 195 to 197 °C | COC(=O)NC1=NC(c2ccc(C(C)C)cc2)CCN1 (centres undefined)
60 | 287 °C | O=c1[nH]c(=O)c2ccc(C(c3ccccc3)n3ccnc3)cc2[nH]1 (centres undefined)
61 | 214 to 216 °C | CC(C)c1nnc2c3ccc(Cl)cc3c(-c3ccccc3)nn12
62 | 73 to 75 °C | CCC(C)NC(=O)n1nc(Oc2c(Cl)cc(C(F)(F)F)cc2Cl)cc1C (centres undefined)
63 | 44 to 45 °C | CC1(C)C2CCC3(C2)C1c1ncncc1CC3(C)C (centres undefined)
64 | 165 to 166 °C | Cc1ccc(C(=O)NC(NC(=NC#N)Nc2cccnc2)C(Cl)(Cl)Cl)cc1 (centres undefined)
65 | 190 to 192 °C | O=C(O)c1ccc(OCCCCCCc2ccc3cc(O)c(O)cc3c2)cc1O
66 | 175 to 176 °C | NC(=O)c1ccc(-c2cccc3cc(Cc4cccc(C(F)(F)F)c4)sc23)cc1
67 | 232 to 234 °C | CCCC1c2cc(C(C)(C)C)cc(C(C)(C)C)c2OP(=O)(c2ccccc2)Oc2c1cc(C(C)(C)C)cc2C(C)(C)C (centres undefined)
68 | 149 to 150 °C | COc1cc(S(=O)(=O)c2ccccc2)ccc1N
69 | 134 °C | COC(=O)C1CN(C(=O)c2cc(OC)c(OC)c(OC)c2)CCN1C(=O)C1=Cc2cc(OC)c(OC)cc2CCC1 (centres undefined)
70 | 224 to 225 °C | O=c1ccc2c(O)cccc2o1
71 | 147 to 148 °C | COCc1c(C(=O)c2ccccc2)ncc2[nH]c3cccc(Cc4ccccc4Cl)c3c12
72 | 133 to 134 °C | CCCCCN(CCCCC)C(=O)N1CCN(C(=O)N(c2ccccc2)c2ccccc2)[C@H](CO)C1

Row | melting point | SMILES
73 | 183 to 186 °C | C=Cc1cc(Cl)cc2c1OC(C(F)(F)F)C(C(=O)O)=C2 (centres undefined)
74 | 35.5 to 45.5 °C | CC(C)(C)OC(=O)N1CCN(CCO[Si](C)(C)C(C)(C)C)C1=O
75 | 91 to 96 °C | CC(C)C[C@H](NC(=O)CCCc1ccccc1)C(=O)N[C@@H](C(C)C)[C@@H](O)c1c(-c2ccccc2)c1=O
76 | 76 to 78 °C | O=[N+]([O-])c1cc(Cl)ncc1CCc1ccccc1
77 | 153 to 155 °C | O=c1c2cccc(O)c2nc(-c2ccc(OCCN3CCCCC3)cc2)n1-c1ccc(O)cc1
78 | 151 to 152 °C | Cc1nc(-c2cccc(Nc3ccc(I)cc3N)c2)cs1
79 | 180 to 182 °C | CCOC(=O)N1C(=O)N(C(=O)OCC)C2(C1=O)C(=O)N(Cc1ccc(Cl)c(Cl)c1)c1ccccc12 (centres undefined)
80 | 66 to 68 °C | CCCCNC(=O)n1cc[nH]c1=S
81 | 163 to 164 °C | CC[C@H](C)[C@H](NC(=O)OCc1ccccc1)C(=O)N[C@@H](C=O)Cc1c[nH]c2ccccc12
82 | 154 to 157 °C | N#Cc1ccc(OCCCc2cc3c(cc2OCc2ccccc2)CC(CCc2ccccc2)O3)cc1 (centres undefined)
83 | 163 to 168 °C | Nc1cc(=O)[nH]c(=O)n1Cc1ccncc1
84 | 198 to 205 °C | CC1CC(c2c[nH]c(-c3ccc(F)cc3)c2-c2ccncc2)CCN1 (centres undefined)
85 | 123 to 124 °C | COc1cc(CCCC2SC(=O)NC2=O)ccc1OCc1csc(-c2ccccc2)n1 (centres undefined)
86 | 294 to 296 °C | Cc1nc(-n2ccc(O)cc2=O)sc1C(=O)NCc1ccc(F)c(F)c1
87 | 121 to 122 °C | COC(=O)CCC(=O)c1ccc(-c2ccc(C)cc2)cc1
88 | 142 to 144 °C | CC1C2C(C(=O)N1Cc1ccc3c(c1)OCO3)C(c1ccc(Br)cc1)N(C)C2(C)C (centres undefined)
89 | 109 to 112 °C | CCCCN(c1nc(N(CC)CC)nc(N(CCCC)C2CC(C)(C)N(OC)C(C)(C)C2)n1)C1CC(C)(C)N(OC)C(C)(C)C1
90 | 185 to 188 °C | O=C(O)CNS(=O)(=O)c1cc2ccc(Cl)cc2cc1Cl
91 | 96 to 98 °C | Cc1nc(C#CCCn2nc3ccccc3n2)sc1C
92 | 122 °C | CCN1CCc2cc(S(=O)(=O)C[N+](=O)[O-])ccc21
93 | 108 °C | CCN=C(Cc1ccccc1)N1CC2C(=O)CCC(c3ccccc3)(c3ccccc3)C2C1 (centres undefined)
94 | 250 °C | N#Cc1cc(-c2cnccn2)c[nH]c1=O
95 | 161 to 163 °C | CCOC(=O)COc1ccc2ncnc(Nc3ccc(F)c(Cl)c3)c2c1
96 | 112 to 115 °C | CC(C)C(=O)Nc1ccc(S(=O)(=O)c2ccc(F)cc2)cc1

Row | SMILES | melting point
97 | NC(=O)c1cn(CC2CC2)c2ccccc12 | 170 °C
98 | CCOC(=O)CN(CP(=O)(ONN(C)C)ONN(C)C)C(=O)C(F)(F)F | 84.5 to 87.5 °C
99 | O=C(NCCN1CCC2(CC1)C(=O)NCN2c1ccccc1)c1cccs1 | 194 °C
